Test results from US20160000762A1, “IMPROVING COGNITIVE FUNCTION” (THE REGENTS OF THE UNIVERSITY OF CALIFORNIA, priority 2013, published 2016).

Experiments:
[1] = Cerebrovascular permeability and pharmacokinetic analysis of BTA-EG4 in mice; format: in vivo, male CD-1 mice; conditions: 10 mg/kg i.p.
Experimental: Cerebrovascular permeability and pharmacokinetic analysis of BTA-EG4 in wild-type mice. The partitioning of BTA-EG4 between plasma and brain was studied in male CD-1 mice. The mice were dosed with 10 mg/kg (in 10% DMSO/90% PBS) intraparitoneally (IP, n=2 per time point) and the concentration of BTA-EG4 in the plasma and brain was measured over time. Blood was collected via cardiac puncture and was pooled in EDTA tubes, centrifuged, and the plasma isolated. The brain was collected from each mouse, snap frozen, and homogenized in 2 mL PBS. The concentration of BTA-EG4 in the plasma and brain at each time point was determined by LC/MS/MS and the concentrations of BTA-EG4 in the plasma and brain were plotted as a function of time. Pharmacokinetic parameters for the plasma and brain profile of BTA-EG4 were also calculated: half-life for BTA-EG4 in the plasma and brain (t1/2), the maximum concentration (Cmax) of BTA-EG4 in the plasma and brain, the area under the concentration-time curve (AUC), the brain-to-plasma ratio (BB), and the logarithmic brain-to-plasma ratio (Log BB).

RasGRF1, p-ERK, p-CREB = assay: Ras signaling immunofluorescence, primary hippocampal neurons; format: cell-based, Sprague-Dawley rats; conditions: 5 μM
Experimental: Primary neuron culture and immunostaining. Primary hippocampal neurons from E19 Sprague-Dawley rats were cultured at 150 cells/mm^2 as previously described (Pak et al., 2001). Neurons were transfected using Lipofectamine™ 2000 (Invitrogen, Carlsbad, Calif., USA) or calcium phosphate precipitation with GFP+PLL, GFP+APP shRNA, or GFP+APP and treated with BTA-EG4. The following antibodies were used: mouse anti-GFP (Novus Biologicals, 9F9.F9), rabbit anti-GFP (Invitrogen, A11122), rabbit anti-GluR1 (Calbiochem, PC246), mouse anti-GluR2 (BD Pharmagen, 556341), mouse anti-postsynaptic density (PSD)-95 (NeuroMabs, Davis, Calif., USA), mouse anti-Synaptophysin (Sigma Aldrich, s5768), rabbit APP N-terminal (Sigma-Aldrich, A8967), anti-Ras (BD Biosciences, 610001), anti-RasGRF1 (Santa Cruz, C-20; BD Biosciences, 610149), anti-ERK1/2 (Cell Signaling, 4695), anti-p-ERK1/2 (Invitrogen, 36880), anti-CREB (Cell Signaling, D76D11), anti-p-CREB (Millipore, 06-519), and mouse anti-c-Myc (Novus Biologicals, 9E10). Cultured hippocampal neuron images were acquired by LSM 510 laser scanning confocal microscope (Zeiss). Confocal zseries image stacks encompassing entire dendrite segments were analyzed using MetaMorph software (Universal Imaging Corporation, Downington, Pa., USA).
We next investigated the molecular mechanism by which BTA-EG4 may alter dendritic spine formation. Ras, a small GTPase, is involved in dendritic spine formation and synaptic delivery of AMPA receptors (Zhu et al., 2002; Lee et al., 2011). Moreover, abnormal Ras signaling is associated with neurodegenerative disease, causing cognitive impairments and learning deficits (Stornetta and Zhu, 2011). Thus, we initially investigated the effect of BTA-EG4 on Ras signaling by treating primary hippocampal neurons with BTA-EG4 (5 μM) or control for 24 hrs. […] Further, levels of active Ras were elevated following BTA-EG4 treatment (5 μM) in primary cortical neurons (FIG. 7C) and following BTA-EG4 treatment (30 mg/kg) in wild-type mice (FIG. 7D). We also examined whether BTA-EG4 can alter the activity of downstream Ras signaling proteins, including p-ERK and p-CREB.
Since we observed that BTA-EG4 and APP could possibly regulate dendritic spine density through Ras-dependent mechanisms, we then examined whether BTA-EG4 requires APP to modulate Ras signaling. To test this hypothesis, primary hippocampal neurons were transfected with GFP and APP shRNA or GFP and APP, treated with control or BTA-EG4 (5 μM), then immunostained against RasGRF1 (FIGS. 9A, 9B).

APP = APP processing in vivo (sAPPα, sAPPβ immunoblot); set-up: species or system wild-type mice; conditions: 30 mg/kg i.p., 2 weeks
Experimental: To test whether BTA-EG4 alters Aβ production in vitro, primary cortical neurons were treated with BTA-EG4 (1 or 5 μM) or control (10% DMSO), and Aβ levels were measured using ELISA. […] We then examined whether BTA-EG4 can alter Aβ levels in vivo by injecting wild-type mice daily for 2 weeks with BTA-EG4 (15 or 30 mg/kg, 10% DMSO in saline, i.p.). […] Furthermore, BTA-EG4 altered APP processing in vivo, as monitored by increased sAPPα (α-secretase cleavage product) and decreased sAPPβ (β-secretase cleavage product) levels in BTA-EG4 injected wild-type mice (30 mg/kg, i.p) compared to control-injected mice (FIGS. 1E, 1F).

[2] = system: RasGRF1, GluA1, GluA2, p-ERK, p-Elk; assay: Western blot of cortex and hippocampus, 3× Tg AD mice; format: in vivo
Experimental: Western blot and analysis. 3× Tg AD mice were injected with 30 mg/kg BTA-EG4 or vehicle daily for 2 weeks. After 2 weeks, the cortex and hippocampus were dissected and homogenized with RIPA buffer. Brain lysates were reduced, boiled, and run on a polyacrylamide gel followed by transfer onto nitrocellulose membrane and incubation in the following primary antibodies: rabbit anti-RasGRF1 (Santa Cruz, C-20), rabbit anti-GluA1 (Millipore, ab1504),mouse anti-GluA2 (Neuromab), rabbit anti-p-ERK (Invitrogen, 36880), or p-Elk (Cell Signal, 9181). Primary antibodies were applied overnight, washed with TBS buffer (3 washes, 5 min each), and HRP conjugated secondary antibodies were applied for 1 h. After 1 h, membranes were washed with TBS buffer (3 washes, 5 min each) and proteins were visualized by affixing the blots to autoradiography film. The density of each band was then quantified using ImageJ software (National Institutes of Health, […].) as a percentage of control following normalization to β-actin.

[3] = hippocampus, 6-10 months, 30 mg/kg daily, 2 weeks

Substance: BTA-EG4
- blood brain barrier crossing [1]: readily crosses the blood brain barrier
- logarithmic brain-to-plasma ratio (log BB) ([1]; n=2 per time point, estimated value): 0.43
- levels of RasGRF1 (RasGRF1, p-ERK, p-CREB; 24 h): increased
- phosphorylation of CREB (RasGRF1, p-ERK, p-CREB; 24 h): increased
- phosphorylation of ERK (RasGRF1, p-ERK, p-CREB; 24 h): increased
- total ERK or CREB levels (RasGRF1, p-ERK, p-CREB; 24 h): without altering
- RasGRF1 (RasGRF1, p-ERK, p-CREB; knockdown of APP): did not increase
- p-CREB (RasGRF1, p-ERK, p-CREB; knockdown of APP): ineffective
- p-ERK (RasGRF1, p-ERK, p-CREB; knockdown of APP): ineffective
- RasGRF1 (RasGRF1, p-ERK, p-CREB; overexpression of APP): significantly increased
- p-CREB (RasGRF1, p-ERK, p-CREB; overexpression of APP): significantly increased
- p-ERK (RasGRF1, p-ERK, p-CREB; overexpression of APP): significantly increased
- sAPPα levels (APP): increased
- sAPPβ levels (APP): decreased
- levels of p-Elk ([2]; 6-10 months): did not alter
- levels of p-Elk ([2]; 13-16 months): did not alter
- levels of p-ERK and ERK ([2]; cortex and hippocampus, 6-10 months, 30 mg/kg daily, 2 weeks): did not have altered levels
- levels of AMPA receptor subunits ([2]; cortex and hippocampus, 13-16 months): no statistically significant change
- GluA2 levels ([2]; cortex, 6-10 months, 30 mg/kg daily, 2 weeks): only a trend of an increase
- GluA1 levels [2, 3]: without a significant change
- GluA2 levels [2, 3]: increased
